The target of one series is TYK2 (h) (Homo sapiens (Human), UniProt P29597). Briefly: TYK2 kinase assay (33P-ATP filter binding, Millipore). The format is biochemical. The protocol: (§1) Kinase assays can be performed by measurement of incorporation of γ-^33P ATP into immobilized myelin basic protein (MBP). High binding white 384 well plates (Greiner) are coated with MBP (Sigma #M−1891) by incubation of 60 μL/well of 20 μg/mL MBP in Tris-buffered saline (TBS; 50 mM Tris pH 8.0, 138 mM NaCl, 2.7 mM KCl) for 24 h at 4° C. Plates are washed 3× with 100 μL TBS. Kinase reactions are carried out in a total volume of 34 μL in kinase buffer (5 mM Hepes pH 7.6, 15 mM NaCl, 0.01% bovine gamma globulin (Sigma #I-5506), 10 mM MgCl2, 1 mM DTT, 0.02% TritonX-100). Compound dilutions are performed in DMSO and added to assay wells to a final DMSO concentration of 1%. Each data point is measured in duplicate, and at least two duplicate assays are performed for each individual compound determination. Enzyme is added to final concentrations of 10 nM or 20 nM, for example. A mixture of unlabeled ATP and γ-^33P ATP is added to start the reaction (2×10^6 cpm of γ-^33P ATP per well (3000 Ci/mmole) and 10 μM unlabeled ATP, typically. The reactions are carried out for 1 h at room temperature with shaking. Plates are washed 7× with TBS, followed by the addition of 50 μL/well scintillation fluid (Wallac). Plates are read using a Wallac Trilux counter. This is only one format of such assays; various other formats are possible, as known to one skilled in the art.
(§2) The above assay procedure can be used to determine the IC50 for inhibition and/or the inhibition constant, Ki. The IC50 is defined as the concentration of compound required to reduce the enzyme activity by 50% under the condition of the assay. The IC50 value is estimated by preparing a 10 point curve using a 1/2 log dilution series (for example, a typical curve may be prepared using the following compound concentrations: 3 μM, 1 μM, 0.3 μM, 0.1 μM, 0.03 μM, 0.01 μM, 0.003 μM, 0.001 μM, 0.0003 μM and 0 μM).
(§3) The kinase assays described herein were performed at Millipore UK Ltd, Dundee Technology Park, Dundee DD2 1SW, UK.

In another series the target is JAK2 (h) (Homo sapiens (Human), UniProt O60674). Briefly: JAK2 kinase assay (33P-ATP filter binding, Millipore). The format is biochemical. The protocol: as §1, §2, §3
Another series deals with JAK3 (h) (Homo sapiens (Human), UniProt P52333). Briefly: JAK3 kinase assay (33P-ATP filter binding, Millipore). The format is biochemical. As for the experimental part:
as §1, §2, §3

Series [1] is described as follows: Compound stability in rat liver microsomes. The following applies: for T1/2 / half-life at 5 μM: compound 5 μM, NADPH 1.0 mM, 37° C.; for CLint / CLint scaled at 5 μM: in vivo CLint extrapolated. The format is in vitro ADME. Summed up:
(§4)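 LC/MS/MS read-out of parent remaining, as % of t=0, after 0, 5, 10, 15, 30 and 60 min at 37° C. Mix: microsomes 0.5 mg/mL, test compound 5 μM, NADPH 1.0 mM, phosphate pH 7.4. Denatured microsomes served as negative control. In vivo CLint extrapolated.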

Series [2] is described as follows: Compound stability in human liver microsomes. The format is in vitro ADME. The conditions noted are these: for half-life at 5 μM / T1/2: compound 5 μM, NADPH 1.0 mM, 37° C. Summed up: as §4
In general terms: Liver microsomes are vesicles of endoplasmic reticulum, rich in cytochrome P450 enzymes.

The target in the next series is JAK1 (h) (Homo sapiens (Human), UniProt P23458). Briefly: JAK1 kinase assay (33P-ATP filter binding, Millipore). The format is biochemical. Summed up: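 Radiometric assay of γ-33P-ATP incorporation into plate-immobilised MBP; kinase buffer pH 7.6 with 10 mM MgCl2, 10 μM unlabelled ATP typical, enzyme 10 or 20 nM final, 1% DMSO. Reactions ran 1 h at room temperature before scintillation counting. IC50 from 10-point half-log dilution curve, duplicates.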

Series [3] in a line: Pharmacokinetics after intravenous and oral administration in rats. The format is in vivo. The following applies: for Clearance (CL) after iv dosing / AUC(0-t) / half-life / Vd: dose 1 mg/kg (Ex. 27: 0.72 mg/kg), iv dosing; for F: oral bioavailability; for AUC(0-t) / half-life / Vd: rat, plasma; for Vd: read-out: Vss. A digest of the protocol:
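Rats were dosed 1 or 2 mg/kg IV or 5 or 10 mg/kg orally, as water solution, HPMC/Tween 80, DMSO/saline, MC suspension or capsule. Plasma was sampled from 0.083 or 0.25 h up to 24 h and quantified by LC/MS/MS in MRM mode with ESI.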

[4] abbreviates: Rat liver microsomes 0.5 mg protein/mL.
Setting [5] is: human, liver microsomes, pH 7.4, Human liver microsomes 0.5 mg protein/mL.
Where [6] appears, read: human, liver microsomes, pH 7.4, Human liver microsomes, in vivo CLint extrapolated.
Where [7] appears, read: Human liver microsomes 0.5 mg protein/mL.
Setting [8] is: rat, liver microsomes, pH 7.4, Rat liver microsomes 0.5 mg protein/mL.
[9] abbreviates: rat, liver microsomes, pH 7.4, Rat liver microsomes.
Setting [10] is: pH 7.4, Rat liver microsomes 0.5 mg protein/mL.

Each structure is given as a SMILES string.

The values that follow come from patent US9403801B2 (Calitor Sciences, LLC, priority 2014, dated 2016).

Chain of JAK2 (h) (O60674 whole entry): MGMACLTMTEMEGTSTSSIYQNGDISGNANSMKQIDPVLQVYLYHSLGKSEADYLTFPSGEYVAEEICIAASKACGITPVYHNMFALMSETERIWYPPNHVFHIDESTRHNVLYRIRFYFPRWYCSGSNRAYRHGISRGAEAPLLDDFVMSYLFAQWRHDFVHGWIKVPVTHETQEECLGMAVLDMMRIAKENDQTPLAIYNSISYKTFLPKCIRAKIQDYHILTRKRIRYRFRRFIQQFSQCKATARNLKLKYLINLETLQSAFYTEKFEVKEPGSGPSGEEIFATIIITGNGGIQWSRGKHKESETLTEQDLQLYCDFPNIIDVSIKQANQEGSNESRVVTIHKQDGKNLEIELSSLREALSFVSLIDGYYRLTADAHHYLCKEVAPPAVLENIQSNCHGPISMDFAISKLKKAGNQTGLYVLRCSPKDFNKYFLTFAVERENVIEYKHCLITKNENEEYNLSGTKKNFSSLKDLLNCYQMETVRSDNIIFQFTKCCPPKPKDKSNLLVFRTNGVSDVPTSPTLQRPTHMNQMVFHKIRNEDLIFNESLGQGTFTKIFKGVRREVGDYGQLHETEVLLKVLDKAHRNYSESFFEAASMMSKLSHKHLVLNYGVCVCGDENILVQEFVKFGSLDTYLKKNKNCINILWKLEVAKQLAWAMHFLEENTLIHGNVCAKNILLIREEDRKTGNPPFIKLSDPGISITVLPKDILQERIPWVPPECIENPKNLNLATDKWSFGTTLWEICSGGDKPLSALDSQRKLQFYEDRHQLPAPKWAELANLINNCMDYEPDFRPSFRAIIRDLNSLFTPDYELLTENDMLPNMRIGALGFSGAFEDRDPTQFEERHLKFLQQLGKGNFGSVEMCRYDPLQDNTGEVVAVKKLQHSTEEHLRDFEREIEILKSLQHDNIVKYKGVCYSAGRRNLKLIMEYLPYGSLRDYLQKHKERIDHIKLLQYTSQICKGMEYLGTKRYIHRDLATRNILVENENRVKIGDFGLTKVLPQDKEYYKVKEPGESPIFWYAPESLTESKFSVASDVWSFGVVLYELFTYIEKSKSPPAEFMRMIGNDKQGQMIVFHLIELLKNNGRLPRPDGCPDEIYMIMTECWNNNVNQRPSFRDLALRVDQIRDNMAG
Chain of JAK1 (h) (P23458 whole entry): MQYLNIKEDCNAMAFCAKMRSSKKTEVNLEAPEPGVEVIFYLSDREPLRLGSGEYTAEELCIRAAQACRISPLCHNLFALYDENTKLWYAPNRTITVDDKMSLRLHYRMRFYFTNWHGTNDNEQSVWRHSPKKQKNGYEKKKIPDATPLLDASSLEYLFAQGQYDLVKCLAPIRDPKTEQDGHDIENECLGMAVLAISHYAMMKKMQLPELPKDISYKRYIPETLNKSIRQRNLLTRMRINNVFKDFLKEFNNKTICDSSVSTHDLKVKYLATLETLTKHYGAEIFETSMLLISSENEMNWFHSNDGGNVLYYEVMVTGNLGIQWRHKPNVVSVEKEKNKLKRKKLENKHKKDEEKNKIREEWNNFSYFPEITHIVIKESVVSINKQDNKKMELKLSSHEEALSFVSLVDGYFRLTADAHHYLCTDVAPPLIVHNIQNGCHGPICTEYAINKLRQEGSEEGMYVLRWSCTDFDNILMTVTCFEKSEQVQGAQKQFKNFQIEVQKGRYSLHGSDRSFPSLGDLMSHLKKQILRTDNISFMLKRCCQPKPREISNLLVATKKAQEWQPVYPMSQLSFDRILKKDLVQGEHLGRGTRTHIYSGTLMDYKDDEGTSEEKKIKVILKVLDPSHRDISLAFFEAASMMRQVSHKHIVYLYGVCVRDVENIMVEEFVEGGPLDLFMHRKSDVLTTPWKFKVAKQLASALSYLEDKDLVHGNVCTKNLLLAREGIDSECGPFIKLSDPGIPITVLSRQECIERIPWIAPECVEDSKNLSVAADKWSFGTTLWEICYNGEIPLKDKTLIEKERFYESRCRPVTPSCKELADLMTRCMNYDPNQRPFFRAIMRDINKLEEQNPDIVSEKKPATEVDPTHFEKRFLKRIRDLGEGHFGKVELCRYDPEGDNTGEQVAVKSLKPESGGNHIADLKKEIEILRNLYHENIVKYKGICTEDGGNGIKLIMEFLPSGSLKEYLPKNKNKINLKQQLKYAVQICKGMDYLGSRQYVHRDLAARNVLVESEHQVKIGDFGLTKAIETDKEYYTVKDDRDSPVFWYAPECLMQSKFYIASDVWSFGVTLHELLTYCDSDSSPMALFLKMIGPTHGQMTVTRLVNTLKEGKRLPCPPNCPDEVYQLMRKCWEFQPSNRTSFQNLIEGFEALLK
Chain of JAK3 (h) (P52333 whole entry): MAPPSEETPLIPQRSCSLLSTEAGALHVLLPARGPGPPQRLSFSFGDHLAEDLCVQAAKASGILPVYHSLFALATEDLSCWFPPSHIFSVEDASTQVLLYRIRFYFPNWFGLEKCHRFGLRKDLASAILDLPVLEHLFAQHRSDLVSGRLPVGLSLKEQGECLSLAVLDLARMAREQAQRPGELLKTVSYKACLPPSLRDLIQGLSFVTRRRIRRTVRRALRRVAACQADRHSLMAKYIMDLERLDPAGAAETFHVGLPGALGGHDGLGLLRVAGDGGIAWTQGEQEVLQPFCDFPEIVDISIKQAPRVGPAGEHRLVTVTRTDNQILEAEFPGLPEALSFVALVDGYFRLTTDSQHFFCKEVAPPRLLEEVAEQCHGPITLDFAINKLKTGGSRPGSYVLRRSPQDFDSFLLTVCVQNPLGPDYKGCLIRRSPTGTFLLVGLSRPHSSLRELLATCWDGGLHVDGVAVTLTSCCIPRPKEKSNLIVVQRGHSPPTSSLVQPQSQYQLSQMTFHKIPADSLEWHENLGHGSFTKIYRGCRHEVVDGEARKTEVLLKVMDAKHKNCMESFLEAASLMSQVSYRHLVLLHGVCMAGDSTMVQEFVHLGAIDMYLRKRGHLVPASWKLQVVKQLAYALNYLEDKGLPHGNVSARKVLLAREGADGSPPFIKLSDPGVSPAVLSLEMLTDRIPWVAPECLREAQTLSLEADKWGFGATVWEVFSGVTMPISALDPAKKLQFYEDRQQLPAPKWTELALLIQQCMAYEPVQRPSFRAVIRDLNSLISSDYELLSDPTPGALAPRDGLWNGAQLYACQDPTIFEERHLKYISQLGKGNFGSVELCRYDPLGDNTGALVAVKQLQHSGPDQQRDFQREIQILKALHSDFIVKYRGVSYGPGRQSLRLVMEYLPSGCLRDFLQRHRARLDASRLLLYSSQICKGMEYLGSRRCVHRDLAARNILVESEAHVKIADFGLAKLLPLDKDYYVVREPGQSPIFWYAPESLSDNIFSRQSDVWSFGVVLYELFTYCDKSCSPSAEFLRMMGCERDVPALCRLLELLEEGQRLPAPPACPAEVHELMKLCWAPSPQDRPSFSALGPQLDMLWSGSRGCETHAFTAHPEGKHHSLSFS
Chain of TYK2 (h) (P29597 whole entry): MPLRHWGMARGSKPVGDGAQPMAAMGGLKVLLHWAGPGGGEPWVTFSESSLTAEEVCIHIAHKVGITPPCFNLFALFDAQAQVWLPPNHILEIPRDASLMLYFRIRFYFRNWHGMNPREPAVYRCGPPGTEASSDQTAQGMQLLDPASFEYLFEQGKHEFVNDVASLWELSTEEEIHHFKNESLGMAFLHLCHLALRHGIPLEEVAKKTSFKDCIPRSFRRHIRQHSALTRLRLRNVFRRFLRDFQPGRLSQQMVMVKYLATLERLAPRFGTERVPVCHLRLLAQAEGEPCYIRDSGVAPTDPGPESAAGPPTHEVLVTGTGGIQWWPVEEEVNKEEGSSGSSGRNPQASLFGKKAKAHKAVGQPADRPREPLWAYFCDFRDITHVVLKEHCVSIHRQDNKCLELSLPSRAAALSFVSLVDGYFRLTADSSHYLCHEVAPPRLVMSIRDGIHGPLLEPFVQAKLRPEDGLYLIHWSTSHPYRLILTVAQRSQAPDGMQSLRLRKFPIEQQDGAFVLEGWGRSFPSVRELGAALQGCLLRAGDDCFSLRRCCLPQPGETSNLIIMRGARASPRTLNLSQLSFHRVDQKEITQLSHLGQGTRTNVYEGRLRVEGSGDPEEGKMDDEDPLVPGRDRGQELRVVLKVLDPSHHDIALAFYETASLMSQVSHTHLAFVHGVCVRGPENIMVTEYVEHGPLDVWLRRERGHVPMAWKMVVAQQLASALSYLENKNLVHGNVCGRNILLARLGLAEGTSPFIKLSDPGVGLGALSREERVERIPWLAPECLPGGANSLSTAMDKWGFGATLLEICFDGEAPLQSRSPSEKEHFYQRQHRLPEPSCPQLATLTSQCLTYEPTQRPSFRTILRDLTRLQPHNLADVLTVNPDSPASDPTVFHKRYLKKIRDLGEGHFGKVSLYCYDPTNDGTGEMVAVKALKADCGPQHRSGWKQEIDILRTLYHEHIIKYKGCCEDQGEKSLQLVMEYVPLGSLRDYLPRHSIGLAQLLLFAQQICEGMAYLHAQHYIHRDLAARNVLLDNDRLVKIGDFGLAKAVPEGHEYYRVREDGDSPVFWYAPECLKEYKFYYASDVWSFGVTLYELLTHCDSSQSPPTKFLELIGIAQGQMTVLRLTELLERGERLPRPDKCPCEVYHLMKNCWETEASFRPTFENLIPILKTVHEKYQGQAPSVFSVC

What is called IC50 is the midpoint of a concentration-inhibition curve. In general, half-life refers to the time needed for the level to fall by half in the phase considered. Read a high half-life as slow decline. One may read the CLint scaled as the capacity of the preparation to metabolise the compound, expressed as a volume cleared per time. On to `Cn1cc(Nc2ncc(Cl)c(NC3CCC4(CC3)CCN(C(=O)CC#N)C4)n2)cn1` (single isomer, unassigned) [Ex. 14A, 3-(8-((5-chloro-2-((1-methyl-1H-pyrazol-4-yl)amino)pyrimidin-4-yl)amino)-2-azaspiro[4.5]decan-2-yl)-3-oxopropanenitrile], for which the IC50 at TYK2 (h) amounted to 1 nM; on JAK2 (h) it was 5 nM; on JAK3 (h), 39 nM; at JAK1 (h), 0.8 nM. The T1/2 in series [1] (setting [4]) amounted to 10.60 min. Besides, the CLint in series [1] (Rat liver microsomes) was 234.31 mL/min/kg. Besides, in series [2] (setting [5]), the half-life at 5 μM worked out at 203 min. Besides, in series [2] (setting [6]), the CLint scaled at 5 μM was 8.55 mL/min/kg.

One may read the AUC(0-t) as exposure summed from dosing to a finite time, without extrapolation to infinity. Low readings indicate low exposure, high ones high exposure. `Cn1cc(Nc2ncc(Cl)c(NC3CCC4(CC3)CCN(C(=O)CC#N)C4)n2)cn1` (single isomer, unassigned) [Ex. 14B, 3-(8-((5-chloro-2-((1-methyl-1H-pyrazol-4-yl)amino)pyrimidin-4-yl)amino)-2-azaspiro[4.5]decan-2-yl)-3-oxopropanenitrile] showed a concentration for half-maximal inhibition (IC50) on JAK2 (h) of 15 nM. The molecule also yielded a T1/2 in series [1] (setting [4]) of 71.63 min. In series [1] (Rat liver microsomes), the CLint is 34.67 mL/min/kg. The T1/2 in series [2] (setting [7]) is recorded as 171.8 min. Besides, the CLint in series [2] (Human liver microsomes, in vivo CLint extrapolated) is given as 10.12 mL/min/kg. For the same molecule, at JAK1 (h), the half-inhibitory concentration (IC50) amounted to 2 nM. Besides, in series [3], the “Clearance (CL) after iv dosing” value turned out to be 86.8 mL/min/kg, the F was 12.7%, the AUC(0-t) came to 193 ng·h/mL and the half-life is 29.4 min. Also, the Vd in series [3] turned out to be 2.41 L/kg.

At JAK2 (h), `Cn1cc(Nc2ncc(Cl)c(NC3CCC4(CC3)CCN(c3ccc(C#N)cn3)CC4)n2)cn1` [Ex. 27, 6-(9-((5-chloro-2-((1-methyl-1H-pyrazol-4-yl)amino)pyrimidin-4-yl)amino)-3-azaspiro[5.5]undecan-3-yl)nicotinonitrile] yielded a half-maximal inhibitory concentration (IC50) of 23 nM. The molecule further registered a half-life at 5 μM in series [1] (setting [8]) of 9.2 min. Besides, the CLint scaled at 5 μM in series [1] (setting [9]) is 270 mL/min/kg. The half-life at 5 μM in series [2] (setting [5]) came to 21.8 min. In series [2] (setting [6]), the CLint scaled at 5 μM is 79.7 mL/min/kg. For the same molecule, the concentration for half-maximal inhibition (IC50) on JAK1 (h) came to 4 nM. In addition, in series [3], the “Clearance (CL) after iv dosing” value amounted to 27.8 mL/min/kg, the F is listed as 15.0%, the AUC(0-t) came to 452 ng·h/mL and the half-life was 46.2 min. Also, the Vd in series [3] came out at 1.74 L/kg.

On JAK2 (h), `Cn1cc(Nc2ncc(Cl)c(NC3CC4CNCC4C3)n2)cn1` (stereo not drawn) [Ex. 11, 5-chloro-N^2-(1-methyl-1H-pyrazol-4-yl)-N^4-(octahydrocyclopenta[c]pyrrol-5-yl)pyrimidine-2,4-diamine] registered an IC50 of 176 nM. In series [1] (setting [10]), this molecule returned a half-life at 5 μM of 17.7 min. The CLint scaled at 5 μM in series [1] (pH 7.4, Rat liver microsomes) is 140 mL/min/kg. The T1/2 entry in series [2] (setting [7]) is listed as “∞”. Moreover, the half-maximal inhibitory concentration (IC50) on JAK1 (h) stood at 27 nM. In series [3], the “Clearance (CL) after iv dosing” value was 105 mL/min/kg, the F was 18.13%, the AUC(0-t) was determined as 146 ng·h/mL and the half-life is 151 min. Besides, in series [3], the Vd came out at 18.6 L/kg.

Consider `CN(c1nc(Nc2cnn(C)c2)ncc1Cl)C1CCC2(CC1)CCN(C(=O)CC#N)C2` (single isomer, unassigned) [Ex. 4A, 3-(8-((5-chloro-2-((1-methyl-1H-pyrazol-4-yl)amino)pyrimidin-4-yl)(methyl)amino)-2-azaspiro[4.5]decan-2-yl)-3-oxopropanenitrile], for which the concentration for half-maximal inhibition (IC50) at JAK2 (h) came to 83 nM. Moreover, in series [1] (setting [8]), the half-life at 5 μM came out at 12.4 min. The CLint scaled at 5 μM in series [1] (setting [9]) is 200 mL/min/kg. In series [2] (setting [5]), this molecule yielded a half-life at 5 μM of 37.3 min. In series [2] (setting [6]), the intrinsic metabolic clearance (CLint scaled) at 5 μM was 46.6 mL/min/kg. The molecule further gave an IC50 on JAK1 (h) of 20 nM. In addition, in series [3], the “Clearance (CL) after iv dosing” value came to 48.8 mL/min/kg, the F came to 21.81%, the area under the curve AUC(0-t) turned out to be 345 ng·h/mL and the half-life was 51.6 min. The Vd in series [3] came to 1.38 L/kg.

The molecule `Cn1cc(Nc2ncc(Cl)c(NC3CCC4(CC3)CCN(C(=O)C(F)(F)F)CC4)n2)cn1` [Ex. 30, 1-(9-((5-chloro-2-((1-methyl-1H-pyrazol-4-yl)amino)pyrimidin-4-yl)amino)-3-azaspiro[5.5]undecan-3-yl)-2,2,2-trifluoroethanone] showed an IC50 at JAK2 (h) of 5 nM. Moreover, the half-life at 5 μM in series [1] (setting [8]) was found to be 24.2 min. Moreover, the CLint scaled at 5 μM in series [1] (setting [9]) is 103 mL/min/kg. Further, the half-life at 5 μM in series [2] (setting [5]) was found to be 38 min. In series [2] (setting [6]), the CLint scaled at 5 μM is 45.7 mL/min/kg. The molecule further yielded a concentration for half-maximal inhibition (IC50) at JAK1 (h) of 0.9 nM. Further, in series [3], the “Clearance (CL) after iv dosing” value was determined as 45.7 mL/min/kg, the F stood at 26.1%, the AUC(0-t) is 370 ng·h/mL and the half-life was 69 min. Further, the Vd in series [3] is 4.77 L/kg.

In the case of `Cc1cc(Nc2ncc(Cl)c(NC3CC4CN(C(=O)CC#N)CC4C3)n2)nn1C` (stereo not drawn) [Ex. 39, 3-(5-((5-chloro-2-((1,5-dimethyl-1H-pyrazol-3-yl)amino)pyrimidin-4-yl)amino)hexahydrocyclopenta[c]pyrrol-2(1H)-yl)-3-oxopropanenitrile], the IC50 on JAK2 (h) came out at 30 nM. This molecule yielded a half-life at 5 μM in series [1] (setting [10]) of 36.9 min. In addition, the CLint scaled at 5 μM in series [1] (pH 7.4, Rat liver microsomes) is 67.3 mL/min/kg. In series [2] (pH 7.4, Human liver microsomes 0.5 mg protein/mL), this molecule gave a half-life at 5 μM of 127 min. In addition, in series [2] (pH 7.4, Human liver microsomes, in vivo CLint extrapolated), the CLint scaled at 5 μM is 13.7 mL/min/kg. The molecule also displayed a concentration for half-maximal inhibition (IC50) on JAK1 (h) of 5 nM. In series [3], the “Clearance (CL) after iv dosing” value is 39.8 mL/min/kg, the F is on record as 83.1%, the AUC(0-t) was 422 ng·h/mL and the half-life was 41.4 min. Moreover, the Vd in series [3] is 1.19 L/kg.

For `Cc1cc(Nc2ncc(Cl)c(NC3CCC4(CC3)CCN(C(=O)CC#N)CC4)n2)nn1C` [Ex. 37, 3-(9-((5-chloro-2-((1,5-dimethyl-1H-pyrazol-3-yl)amino)pyrimidin-4-yl)amino)-3-azaspiro[5.5]undecan-3-yl)-3-oxopropanenitrile], on JAK2 (h), the IC50 is 11 nM. Moreover, the half-life at 5 μM in series [1] (setting [8]) is 68.9 min. In addition, the CLint scaled at 5 μM in series [1] (setting [9]) was 36.1 mL/min/kg. In series [2] (setting [5]), this molecule returned a half-life at 5 μM of 56.2 min. Moreover, the intrinsic metabolic clearance (CLint scaled) at 5 μM in series [2] (setting [6]) is 30.9 mL/min/kg. In addition, at JAK1 (h), the IC50 amounted to 5 nM. In series [3], the “Clearance (CL) after iv dosing” value turned out to be 44.3 mL/min/kg, the F is 31.3%, the AUC(0-t) was found to be 381 ng·h/mL and the half-life was 71.4 min. In addition, the Vd in series [3] came to 2.97 L/kg.
